Drawing on patent US5191079A, “Quinolinecarboxylic acid derivatives” (priority 1990, dated 1993), this text covers MIC90, MIC and MIC50 for three molecules.

What all share (assay type): cell-based
Experiment [1] deals with clinically isolated Staphylococcus aureus. In words: In vitro antibacterial activity against clinical isolates, Experiment 2. Particulars: for MIC50: 50% of strains, read-out: MIC50. The method, then:
The above solutions were then diluted with sterilized distilled water to prepare a standard solution with a concentration of the test compound: 1000 μg/ml each.
For the preculture of each microorganism, there was used as the medium a sensitivity test broth (manufactured by Nissui Seiyaku K. K., Japan), and for the measurement of MIC, there was used a sensitivity test agar medium (manufactured by Nissui Seiyaku K. K.).
The clinically isolates used above were isolated from Nov. 1988 to Jun. 1989 and were obtained from Research Section, Tokyo Clinical Research Center.

Experiment [2] has as its system Pseudomonas aeruginosa NCTC 10490. As to the kind of experiment: MIC, Experiment 1. Conditions: NCTC10490, P. aeruginosa NCTC 10490, Gram -, read-out: Min. inhib. concentr. (MIC). The method, then:
(§1) The compounds of the present invention (B, E, G, H, M, N, O, P and Q) were each dissolved in dimethylsulfoxide to prepare a solution of 5000 μg/ml in concentration. The compounds of the present invention (I, J and K) and the known compound (Y) were each dissolved in sterilized distilled water to prepare a solution of 5000 μg/ml in concentration. Each solution was diluted with sterilized distilled water to prepare a standard solution with a concentration of each test compound: 1000 μg/ml. The test was carried out by a method as appointed by Japan Society of Chemotherapy [cf. Chemotherapy, 29, 76-79 (1981), TOKYO].
(§2) As to Streptococcus pneumoniae and Streptococcus pyogenes, Brain heart infusion broth (manufactured by DIFCO) was used as the medium for the preculture thereof, and a heart infusion agar medium containing 5% defibrinated horse blood (manufactured by Nissui Seiyaku K. K., Japan) was used as the medium for the measurement of minimum inhibitory concentration (MIC). As to other microorganisms, a sensitivity test broth (manufactured by Nissui Seiyaku K. K.) was used as the medium for the preculture thereof, and a sensitivity test agar medium (manufactured by Nissui Seiyaku K. K.) was used as the medium for the measurement of MIC.

Experiment [3] concerns Streptococcus pneumoniae IID 552. In words: MIC, Experiment 1. Conditions: IID552, S. pneumoniae IID 552, Gram +, agar with 5% defibrinated horse blood, read-out: Min. inhib. concentr. (MIC). The method, then: as §1, §2
Experiment [4] deals with Micrococcus luteus ATCC 9341. In words: MIC, Experiment 1. Conditions: ATCC9341, M. luteus ATCC 9341, Gram +, read-out: Min. inhib. concentr. (MIC). The method, then:
as §1, §2

Experiment [5] relates to Streptococcus pyogenes Sv. As to the kind of experiment: MIC, Experiment 1. Particulars: S. pyogenes Sv, Gram +, agar with 5% defibrinated horse blood, read-out: Min. inhib. concentr. (MIC). The method, then: as §1, §2
Experiment [6] concerns Streptococcus pyogenes Su. In words: MIC, Experiment 1. Conditions: S. pyogenes Su, Gram +, agar with 5% defibrinated horse blood, read-out: Min. inhib. concentr. (MIC). The method, then:
as §1, §2

Experiment [7] has as its system Escherichia coli NIHJ JC-2. In words: MIC, Experiment 1. Conditions: NIHJJC2, E. coli NIHJ JC-2, Gram -, read-out: Min. inhib. concentr. (MIC). Here is the method:
as §1, §2

In experiment [8] the test system is Staphylococcus aureus MS-353. As to the kind of experiment: MIC, Experiment 1. Particulars: MS353, S. aureus MS-353, Gram +, read-out: Min. inhib. concentr. (MIC). The method, then:
as §1, §2

For experiment [9], the system named is Staphylococcus aureus FDA 209P JC-1. As to the kind of experiment: MIC, Experiment 1. Conditions: FDA209P, S. aureus FDA 209P JC-1, Gram +, read-out: Min. inhib. concentr. (MIC). The method, then: as §1, §2
The test system of experiment [10] is Staphylococcus aureus ATCC 9144. As to the kind of experiment: MIC, Experiment 1. Particulars: ATCC9144, S. aureus ATCC 9144, Gram +, read-out: Min. inhib. concentr. (MIC). Here is the method: as §1, §2
The subject of experiment [11] is Staphylococcus aureus IID 803. In words: MIC, Experiment 1. Conditions: IID803, S. aureus IID 803, Gram +, read-out: Min. inhib. concentr. (MIC). The method, then: as §1, §2
Experiment [12] relates to Streptococcus pyogenes Cook. As to the kind of experiment: MIC, Experiment 1. Particulars: S. pyogenes Cook, Gram +, agar with 5% defibrinated horse blood, read-out: Min. inhib. concentr. (MIC). The method, then: as §1, §2
For experiment [13], the system named is Streptococcus pneumoniae IID 554. In words: MIC, Experiment 1. Particulars: IID554, S. pneumoniae IID 554, Gram +, agar with 5% defibrinated horse blood, read-out: Min. inhib. concentr. (MIC). The method, then: as §1, §2
The test system of experiment [14] is Bacillus subtilis ATCC 6633. In words: MIC, Experiment 1. Conditions: ATCC6633, B. subtilis ATCC 6633, Gram +, read-out: Min. inhib. concentr. (MIC). Here is the method:
as §1, §2

Experiment [15] relates to Staphylococcus aureus Terajima (IID 670). As to the kind of experiment: MIC, Experiment 1. Conditions: IID670, S. aureus Terajima (IID 670), Gram +, read-out: Min. inhib. concentr. (MIC). The method, then:
as §1, §2

The test system of experiment [16] is Klebsiella pneumoniae PCI-602. In words: MIC, Experiment 1. Particulars: PCI602, K. pneumoniae PCI-602, Gram -, read-out: Min. inhib. concentr. (MIC). The method, then:
as §1, §2

Experiment [17] has as its system Proteus mirabilis IFO 3849. In words: MIC, Experiment 1. Conditions: IFO3849, P. mirabilis IFO 3849, Gram -, read-out: Min. inhib. concentr. (MIC). The method, then:
as §1, §2

The next experiment relates to Bacillus cereus IAM 1029. As to the kind of experiment: MIC, Experiment 1. Conditions: IAM1029, B. cereus IAM 1029, Gram +, read-out: Min. inhib. concentr. (MIC). The method, then:
as §1, §2

The next experiment relates to Enterobacter cloacae 963. In words: MIC, Experiment 1. Conditions: E. cloacae 963, Gram -, read-out: Min. inhib. concentr. (MIC). Here is the method:
as §1, §2

Experiment [18] deals with Staphylococcus aureus FDA 243. In words: MIC, Experiment 1. Conditions: FDA243, S. aureus FDA 243, Gram +, read-out: Min. inhib. concentr. (MIC). The method, then:
as §1, §2

Experiment [19] deals with Staphylococcus aureus Cowan I (IID 975). As to the kind of experiment: MIC, Experiment 1. Particulars: IID975, S. aureus Cowan I (IID 975), Gram +, read-out: Min. inhib. concentr. (MIC). Here is the method: as §1, §2
Experiment [20] deals with Acinetobacter calcoaceticus Ac 54. As to the kind of experiment: MIC, Experiment 1. Particulars: AC54, A. calcoaceticus Ac 54, Gram -, read-out: Min. inhib. concentr. (MIC). Here is the method:
as §1, §2

Where [21] appears, read: 25 clinical strains S. aureus incl. 16 methicillin resistant.
Where [22] appears, read: 25 clinical strains S. aureus incl. 16 methicillin resistant, 90% of strains, read-out: MIC90.

Each structure is given as a SMILES string. Values after ≈ are worked out from the molar mass of the structure shown. Read-outs that look alike come from different tables or passages of the source.

Turning to `CN1Cc2csc3c(C(=O)O)c(=O)c4cc(F)c(N5CCO[C@@H](CO)C5)c1c4n23` [Compound (N), 9,1-(Methylimino)methano-7-fluoro-8-[(2R)-2-hydroxymethylmorpholino]-5-oxo-5H-thiazolo[3,2-a]quinoline-4-caboxylic acid], in experiment [1], the MIC90 – broadly, the lowest concentration that inhibits either 90% of growth or 90% of the strains tested, depending on the study – amounted to 0.78 µg/mL (≈ 1.86 µM). Moreover, the MIC – broadly, the lowest concentration that inhibits growth of the organism – was 0.006 to 0.78 µg/mL (≈ 0.0143 to 1.86 µM) in experiment [1] (setting [21]); 0.39 µg/mL (≈ 0.93 µM) in experiment [2]; 0.025 µg/mL (≈ 0.0596 µM) in [3]; 0.1 µg/mL (≈ 0.238 µM) in [4]; 0.05 µg/mL (≈ 0.119 µM) in [5]; 0.025 µg/mL (≈ 0.0596 µM) in experiment [6]. Also, the MIC was 0.2 µg/mL (≈ 0.477 µM) in experiment [7]; 0.025 µg/mL (≈ 0.0596 µM) in experiment [8]; 0.013 µg/mL (≈ 0.031 µM) in experiment [9]; at most 0.006 µg/mL in [10]; 0.013 µg/mL (≈ 0.031 µM) in experiment [11]; 0.025 µg/mL (≈ 0.0596 µM) in [12]. The minimal inhibitory concentration (MIC) in [13] was 0.05 µg/mL (≈ 0.119 µM); in experiment [14], at most 0.006 µg/mL; in experiment [15], 0.025 µg/mL (≈ 0.0596 µM); in experiment [16], at most 0.006 µg/mL; in experiment [17], 0.39 µg/mL (≈ 0.93 µM); in the experiment on Bacillus cereus IAM 1029 it was 0.025 µg/mL (≈ 0.0596 µM). For the same molecule, the MIC with Enterobacter cloacae 963 is 0.39 µg/mL (≈ 0.93 µM); in experiment [18], at most 0.006 µg/mL; in [19], 0.013 µg/mL (≈ 0.031 µM); in experiment [20] it was at most 0.006 µg/mL. Further, in experiment [1] (setting [21]), the MIC50 (as a rule, the lowest concentration that inhibits either 50% of growth or 50% of the strains tested, depending on the study) turned out to be 0.013 µg/mL (≈ 0.031 µM).
Regarding `CN1Cc2csc3c(C(=O)O)c(=O)c4cc(F)c(N5CCC(O)CC5)c1c4n23` [Compound (L), 9,1-(Methylimino)methano-7-fluoro-8-(4-hydroxypiperidino)-5-oxo-5H-thiazolo[3,2-a]quinoline-4-carboxylic acid], the MIC is 0.006 to 0.39 µg/mL (≈ 0.0149 to 0.967 µM) in [1] (setting [21]); 0.39 µg/mL (≈ 0.967 µM) in [2]; 0.013 µg/mL (≈ 0.0322 µM) in experiment [3]; 0.1 µg/mL (≈ 0.248 µM) in [4]; 0.025 µg/mL (≈ 0.062 µM) in [5]; 0.025 µg/mL (≈ 0.062 µM) in [6]. Further, the MIC in [7] is 0.1 µg/mL (≈ 0.248 µM); in [8], 0.013 µg/mL (≈ 0.0322 µM); in experiment [9], 0.013 µg/mL (≈ 0.0322 µM); in experiment [10] it was at most 0.006 µg/mL; in experiment [11] it was at most 0.006 µg/mL; in experiment [12], 0.025 µg/mL (≈ 0.062 µM). The MIC is 0.05 µg/mL (≈ 0.124 µM) in [13]; at most 0.006 µg/mL in experiment [14]; 0.013 µg/mL (≈ 0.0322 µM) in experiment [15]; at most 0.006 µg/mL in [16]; 0.2 µg/mL (≈ 0.496 µM) in experiment [17]; 0.013 µg/mL (≈ 0.0322 µM) in the experiment with Bacillus cereus IAM 1029. In addition, the minimum inhibitory concentration (MIC) with Enterobacter cloacae 963 was 0.2 µg/mL (≈ 0.496 µM); in [18] it was at most 0.006 µg/mL; in experiment [19], at most 0.006 µg/mL; in [20], at most 0.006 µg/mL. Besides, the MIC50 in experiment [1] (setting [21]) is at most 0.006 µg/mL. Also, in [1] (setting [22]), the MIC90 worked out at 0.39 µg/mL (≈ 0.967 µM).
For the molecule `CN1Cc2csc3c(C(=O)O)c(=O)c4cc(F)c(N5CCC(=O)CC5)c1c4n23` [Compound (G), 9,1-(Methylimino)methano-7-fluoro-8-(4-oxopiperidino)-5-oxo-5H-thiazolo[3,2-a]quinoline-4-carboxylic acid], the MIC is 0.006 to 0.39 µg/mL (≈ 0.0149 to 0.972 µM) in experiment [1] (setting [21]); 0.39 µg/mL (≈ 0.972 µM) in experiment [2]; 0.025 µg/mL (≈ 0.0623 µM) in experiment [3]; 0.05 µg/mL (≈ 0.125 µM) in experiment [4]; 0.025 µg/mL (≈ 0.0623 µM) in [5]; 0.013 µg/mL (≈ 0.0324 µM) in experiment [6]. For the same molecule, the MIC in [7] is 0.1 µg/mL (≈ 0.249 µM); in [8], at most 0.006 µg/mL; in experiment [9], 0.013 µg/mL (≈ 0.0324 µM); in experiment [10] it was at most 0.006 µg/mL; in [11], at most 0.006 µg/mL; in experiment [12] it was 0.025 µg/mL (≈ 0.0623 µM). Further, the MIC is 0.025 µg/mL (≈ 0.0623 µM) in experiment [13]; at most 0.006 µg/mL in [14]; 0.013 µg/mL (≈ 0.0324 µM) in experiment [15]; at most 0.006 µg/mL in experiment [16]; 0.2 µg/mL (≈ 0.498 µM) in experiment [17]; 0.013 µg/mL (≈ 0.0324 µM) with Bacillus cereus IAM 1029. In addition, the MIC is 0.2 µg/mL (≈ 0.498 µM) with Enterobacter cloacae 963, at most 0.006 µg/mL in experiment [18], at most 0.006 µg/mL in [19] and at most 0.006 µg/mL in [20]. Also, in experiment [1] (setting [21]), the MIC50 was at most 0.006 µg/mL. The MIC90 in experiment [1] (setting [22]) was found to be 0.2 µg/mL (≈ 0.498 µM).
